Results reported in the supplement of paper PMC10307832.

compound: CC1(C)CNc2cc(NC(=O)c3cccnc3NCc3ccncc3)ccc21 [Motesanib] + C[C@@H](Oc1cc(-c2cnn(C3CCNCC3)c2)cnc1N)c1c(Cl)ccc(F)c1Cl [Crizotinib] (partner 1 µM); assay: relative viability (nuclei count vs DMSO), 5 days (fraction); higher = more cells survive; settings: first compound 0.01 µM
How it was run: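 After 5 days of treatment, lung cancer cells in 1536-well plates were fixed and stained in a single step (final 0.05% Triton X-100, 1% formaldehyde, 1 ug/ml Hoechst) and their nuclei counted on 4× images. Treatment had been applied by pin tool the day after seeding as one drug alone or as a fixed anchor-drug dose with five library-drug doses (not always all listed) in √10 steps. Relative viability is the nuclei count of treated wells divided by that of vehicle wells, and values are medians of duplicate plates.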

Point of comparison: NCI-H1666, relative viability 1.02. Against it:
- NCI-H2126 — higher, 1.07
- EMC-BAC-2 — lower, 0.761
- NCI-H2085 — lower, 0.924
- HCC-366 — lower, 0.575
- NCI-H596 — lower, 0.937
- LK-2 — lower, 0.232
- NCI-H2087 — lower, 0.686
- SK-MES-1 — lower, 0.983
- H3255 — lower, 0.793
- COR-L23 — lower, 0.512
- COR-L 105 — lower, 0.981
- LOU-NH91 — lower, 0.743
- NCI-H2405 — lower, 0.8
- HOP-62 — lower, 0.899
- HCC-44 — lower, 0.883
- LU99A — lower, 0.518
- BEN — lower, 0.792
- HARA — higher, 1.1
- HCC-78 — lower, 0.378
- NCI-H322M — higher, 1.06
- LCLC-97TM1 — lower, 0.362
- NCI-H2009 — lower, 0.965
- A-427 — lower, 0.933
- NCI-H1734 — lower, 0.685
- NCI-H460 — lower, 0.935
- NCI-H2347 — lower, 0.783
- SK-LU-1 — lower, 0.961
- 201T — the same, 1.02
- NCI-H1915 — lower, 0.897
- HCC-827 — lower, 0.99
- LXF-289 — lower, 0.822
- NCI-H23 — lower, 0.484

same assay, conditions: first compound 0.03162 µM

Point of comparison: 201T, relative viability 1.07. Against it:
- NCI-H2126 — lower, 1
- EMC-BAC-2 — lower, 0.656
- NCI-H2085 — lower, 0.846
- HCC-366 — lower, 0.487
- NCI-H1666 — lower, 1.06
- NCI-H596 — lower, 0.884
- LK-2 — lower, 0.234
- NCI-H2087 — lower, 0.983
- SK-MES-1 — lower, 0.986
- H3255 — lower, 0.883
- COR-L23 — lower, 0.639
- COR-L 105 — lower, 0.739
- LOU-NH91 — lower, 0.746
- NCI-H2405 — lower, 0.847
- HOP-62 — lower, 0.82
- HCC-44 — lower, 0.8
- LU99A — lower, 0.477
- BEN — lower, 0.85
- HARA — lower, 0.993
- HCC-78 — lower, 0.352
- NCI-H322M — lower, 0.835
- LCLC-97TM1 — lower, 0.429
- NCI-H2009 — higher, 1.09
- A-427 — lower, 0.892
- NCI-H661 — lower, 0.945
- NCI-H1734 — lower, 0.645
- NCI-H460 — lower, 0.75
- NCI-H2347 — lower, 0.691
- SK-LU-1 — lower, 0.935
- NCI-H1915 — lower, 0.851
- HCC-827 — lower, 0.985
- LXF-289 — lower, 0.823
- NCI-H23 — lower, 0.373

same assay, conditions: first compound 0.1 µM

Point of comparison: LK-2, relative viability 0.231. Against it:
- NCI-H2126 — higher, 0.999
- EMC-BAC-2 — higher, 0.765
- NCI-H2085 — higher, 1.05
- HCC-366 — higher, 0.605
- NCI-H1666 — higher, 0.949
- NCI-H596 — higher, 0.958
- NCI-H2087 — higher, 0.951
- SK-MES-1 — higher, 1.01
- H3255 — higher, 0.986
- COR-L23 — higher, 0.703
- COR-L 105 — higher, 0.743
